Patent US7560267B2, “Apparatus and methods for on-chip monitoring of cellular reactions” (City University of Hong Kong, priority 2002, dated 2009)

Assays:
[1] = test system: HL60 cells; test: ATP threshold concentration by conventional fluorescence measurements (13 serial dilution experiments); format: cell-based; details: 13 individual serial dilution experiments, FIG. 8
Protocol: FIG. 8 is a plot of ATP threshold concentration obtained by conventional techniques for comparison purposes, In this example, first of all a viability test was carried out to confirm that after docking a sufficient number of living cells were safely docked, and then a concentration gradient was made visible by a fluorophore. When the presence of a viable number of docked cells, and the creation of a concentration gradient were confirmed, the threshold concentration for calcium uptake was calculated using the apparatus of the invention, and then the results compared with an experiment using conventional serial dilution techniques. The ATP concentration gradient along the dam structure was estimated according to the above computational model. Combining the results obtained in 2 μM and 5 μM ATP stimulations, the threshold concentration was estimated within a range of 0.16±0.02 μM. The threshold concentration was also determined using conventional fluorescence measurements. […] The threshold concentration range was determined to be 0.15-0.19 μM, which is in good agreement with the result obtained using the embodiment of the present invention.

[2] = test system: HL60 cells; test: On-chip ATP-dependent calcium uptake in docked HL60 cells (Fluo-3 fluorescence, concentration gradient); format: cell-based
Protocol: A practical embodiment of the present invention will now be described with reference to a typical experiment of the type for which the present invention is particularly suitable. In particular, in the following example an embodiment of the invention will be used to calculate the threshold ATP concentration that induces calcium uptake in HL60 mammalian cells. In this example HL60 cells (leukemia, promyelocytic) were suspended in 0.5 ml fresh RPMI 1640 with Pluronic F-127 (1% w/v final) and Fluo3-AM (2 micro molar final). After 30 minutes of incubation at room temperature, cells were re-suspended in (Hank's balanced salt solution) HBSS before loading into the apparatus. The example was carried out with an apparatus as shown in FIG. 1 and manufactured as described above. Before use, the etched quartz plate and a PDMS cover were touch-bonded and irradiated with UV light for 10 minutes in a bio-safety cabinet. After filling up micro-channels with buffer by capillary action, the apparatus was securely mounted on the stage of confocal microscope. Introduction of various fluids was implemented by using a 2-20 […] auto-pipette (HLT pipette-mate). An Axiovert 100M confocal microscope (Carl Zeiss) was used for data acquisition. Profiling data analysis mode was employed to present PMT response along a specific line in the apparatus. All fluorophores were excited by Argon (488 nm) laser. An emission filter 505-530 nm was used for Fluo-3 and AO while a 560 nm (long-pass) filter was used for ethidium bromide (EB) study. Scanning parameters were kept identical throughout all experiments for a particular fluorophore. Mammalian HL60 cells uptake extracellular calcium ions when the buffer ATP concentration is beyond a particular level. The minimum ATP concentration required to induce calcium uptake is referred as the threshold concentration. In this example of the use of an embodiment of the invention, cell docking and analyte concentration gradient were combined to determine the threshold concentration of ATP-dependent calcium uptake. The fluorescence images of the microchip under different conditions are shown in FIG. 6, with about 80 docked cells along the dam. In the “control” image and intensity measurement, the background cellular signal was due to the presence of intracellular calcium in HL60 cells. When an ATP solution (2 μM) was loaded into the CW/A vial, the cellular signal intensity was increased by 3-fold in the first zone (A to B) as compared to other zones (FIGS. 6 & 7, 2 μM images). The ATP threshold concentration can therefore be visualized as being between points B and C. After washing with buffer, the same batch of docked HL60 cells were exposed to higher ATP concentrations. Using the same LLP, the threshold concentration range shifted downstream with increasing analyte concentrations. As shown in FIGS. 6 & 7, with 5 μM ATP loaded into the apparatus, the cellular fluorescence intensity-in the first (A to B) and second (C to D) zones were enhanced. The threshold concentration range was shifted to the zone between points D & E. Repeating this process with 10 μM ATP, the Ca-related fluorescence in all cells in all zones were excited, (the signal intensity at the first zone was relatively weak due to desensitization from multiple ATP stimulations.). […] Using this equation, a relationship between liquid levels H and flow quantity Q can be derived: H=RQ+KQ2 (2) where parameters R and K depends on the geometrical profile of the channels. […]

Nc1ncnc2c1ncn2[C@@H]1O[C@H](COP(=O)(O)OP(=O)(O)OP(=O)(O)O)[C@@H](O)[C@H]1O [ATP]
threshold concentration range [1]: 0.15 to 0.19 µM
increase of cellular signal intensity (fold) ([2]; 2 μM ATP loaded into CW/A vial, first zone (A to B) compared to other zones): 3 fold
cellular fluorescence intensity ([2]; 5 μM ATP loaded, first (A to B) and second (C to D) zones): enhanced
Ca-related fluorescence ([2]; 10 μM ATP loaded, all cells in all zones): excited
threshold concentration of ATP-dependent calcium uptake ([2]; on-chip, HL60 cells, estimated from computational gradient model combining 2 μM and 5 μM ATP stimulations): 0.16 ± 0.02 µM
threshold ATP concentration ([2]; on-chip, HL60 cells, indicated by experimental results before gradient estimation): below 2 μM
